Measurements: the NIST ThermoML archive (doi:10.1021/je400562z)

Conditions: for surface tension liquid-gas: Ring tensiometer; for mass density / viscosity: 101.33 kPa, Liquid; for viscosity: Concentric cylinders viscometry

CN(CCO)CCO [N-methyldiethanolamine]
Conditions | mass density [kg/m3] | surface tension liquid-gas [mN/m] | viscosity [mPa·s]
303.15 K | 1033.8 | 37.33 | 56.3
313.15 K | 1026.7 | – | 34.45
323.15 K | 1018.9 | – | 22.93
333.15 K | – | 35.47 | 14.99
